Assay results reported in publication PMC11866022, “Long-Chain Cyclic Arylguanidines as Multifunctional Serotonin Receptor Ligands with Antiproliferative Activity” (ACS Omega, 2025).
pEC50: −log10 of the molar value.

Target: T1, 5-HT7 (Homo sapiens, UniProt P34969)
T1 construct: expressed in transfected cells; host or cells: HEK293
Test: Functional cAMP assay (LANCE Ultra), 5-HT7
Format: cell-based
Conditions: Table 3, unit inferred, agonist mode

T1 sequence (P34969 whole entry, species assumed): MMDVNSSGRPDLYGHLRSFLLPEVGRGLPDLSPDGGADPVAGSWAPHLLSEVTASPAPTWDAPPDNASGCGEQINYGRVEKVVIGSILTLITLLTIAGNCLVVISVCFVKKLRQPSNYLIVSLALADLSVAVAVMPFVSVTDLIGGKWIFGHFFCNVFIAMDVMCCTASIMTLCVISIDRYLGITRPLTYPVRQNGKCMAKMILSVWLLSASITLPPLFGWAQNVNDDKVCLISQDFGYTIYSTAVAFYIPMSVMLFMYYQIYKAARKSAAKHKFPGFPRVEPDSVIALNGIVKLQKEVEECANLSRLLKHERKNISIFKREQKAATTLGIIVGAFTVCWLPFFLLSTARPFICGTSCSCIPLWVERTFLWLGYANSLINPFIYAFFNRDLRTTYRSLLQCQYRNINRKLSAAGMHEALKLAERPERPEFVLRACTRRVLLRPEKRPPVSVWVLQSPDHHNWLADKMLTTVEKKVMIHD

CC1NC(NCCCCCCNS(=O)(=O)c2c(Cl)ccc3ccccc23)=Nc2ccccc21 (stereo not shown) [PP 13, 2-Chloro-N-{6-[(4-methyl-3,4-dihydroquinazolin-2-yl)amino]hexyl}naphthalene-1-sulfonamide]
pEC50: 7.28
